# Patent US5679701A (priority 1996, dated 1997)
# Entries after “also recorded” stand apart in the source; their conditions may differ. Like-named read-outs stand apart in the source and are kept apart here.
# How the values were obtained:
# [1] = test system: SR Ca^++ release channel/ryanodine receptor (cardiac and skeletal muscle vesicles); type: biochemical
# [2] = target: T1, ryanodine receptor (skeletal sarcoplasmic reticulum membrane vesicles) (Oryctolagus cuniculus, UniProt P11716); assay: biochemical; type: binding
# T1 construct: skeletal sarcoplasmic reticulum membrane vesicles; from tissue; host or cells: skeletal muscle sarcoplasmic reticulum membrane vesicles
# [3] = target: T2, Sarcoplasmic Reticular Ca^++ -Release Channel (ryanodine receptor) (Oryctolagus cuniculus, UniProt P11716); assay: biochemical; type: binding
# T2 construct: skeletal sarcoplasmic reticulum membrane vesicles; from tissue; host or cells: skeletal muscle sarcoplasmic reticulum membrane vesicles
# [4] = target: SR Ca^2+ release channel (junctional SR vesicles from rabbit skeletal muscle) (Oryctolagus cuniculus, UniProt P11716); assay: biochemical; type: biochemical
# Description: Briefly, junctional SR vesicles from rabbit skeletal muscle were passively loaded with. ^45 Ca^2+ in the presence and absence of the esters. Ca^2+ -efflux was then initiated by diluting the vesicles 100-fold into a low Ca^2+ -concentration. ^45 Ca^2+ remaining in the vesicles was determined after a 3 sec. efflux period by termination and filtration of the vesicles followed by liquid scintillation counting.
# [5] = Table I, displacement of 6.7 nM [3H]ryanodine, mean ± standard deviation of replicates, read-out: IC50
# [6] = Table I, mean ± standard deviation of replicates, read-out: KD
# [7] = second embodiment, read-out: IC50
# [8] = first embodiment, read-out: IC50
# [9] = Table II, more highly purified standards, read-out: IC50 (nM) ± S.D.
# T1 sequence (P11716 whole entry): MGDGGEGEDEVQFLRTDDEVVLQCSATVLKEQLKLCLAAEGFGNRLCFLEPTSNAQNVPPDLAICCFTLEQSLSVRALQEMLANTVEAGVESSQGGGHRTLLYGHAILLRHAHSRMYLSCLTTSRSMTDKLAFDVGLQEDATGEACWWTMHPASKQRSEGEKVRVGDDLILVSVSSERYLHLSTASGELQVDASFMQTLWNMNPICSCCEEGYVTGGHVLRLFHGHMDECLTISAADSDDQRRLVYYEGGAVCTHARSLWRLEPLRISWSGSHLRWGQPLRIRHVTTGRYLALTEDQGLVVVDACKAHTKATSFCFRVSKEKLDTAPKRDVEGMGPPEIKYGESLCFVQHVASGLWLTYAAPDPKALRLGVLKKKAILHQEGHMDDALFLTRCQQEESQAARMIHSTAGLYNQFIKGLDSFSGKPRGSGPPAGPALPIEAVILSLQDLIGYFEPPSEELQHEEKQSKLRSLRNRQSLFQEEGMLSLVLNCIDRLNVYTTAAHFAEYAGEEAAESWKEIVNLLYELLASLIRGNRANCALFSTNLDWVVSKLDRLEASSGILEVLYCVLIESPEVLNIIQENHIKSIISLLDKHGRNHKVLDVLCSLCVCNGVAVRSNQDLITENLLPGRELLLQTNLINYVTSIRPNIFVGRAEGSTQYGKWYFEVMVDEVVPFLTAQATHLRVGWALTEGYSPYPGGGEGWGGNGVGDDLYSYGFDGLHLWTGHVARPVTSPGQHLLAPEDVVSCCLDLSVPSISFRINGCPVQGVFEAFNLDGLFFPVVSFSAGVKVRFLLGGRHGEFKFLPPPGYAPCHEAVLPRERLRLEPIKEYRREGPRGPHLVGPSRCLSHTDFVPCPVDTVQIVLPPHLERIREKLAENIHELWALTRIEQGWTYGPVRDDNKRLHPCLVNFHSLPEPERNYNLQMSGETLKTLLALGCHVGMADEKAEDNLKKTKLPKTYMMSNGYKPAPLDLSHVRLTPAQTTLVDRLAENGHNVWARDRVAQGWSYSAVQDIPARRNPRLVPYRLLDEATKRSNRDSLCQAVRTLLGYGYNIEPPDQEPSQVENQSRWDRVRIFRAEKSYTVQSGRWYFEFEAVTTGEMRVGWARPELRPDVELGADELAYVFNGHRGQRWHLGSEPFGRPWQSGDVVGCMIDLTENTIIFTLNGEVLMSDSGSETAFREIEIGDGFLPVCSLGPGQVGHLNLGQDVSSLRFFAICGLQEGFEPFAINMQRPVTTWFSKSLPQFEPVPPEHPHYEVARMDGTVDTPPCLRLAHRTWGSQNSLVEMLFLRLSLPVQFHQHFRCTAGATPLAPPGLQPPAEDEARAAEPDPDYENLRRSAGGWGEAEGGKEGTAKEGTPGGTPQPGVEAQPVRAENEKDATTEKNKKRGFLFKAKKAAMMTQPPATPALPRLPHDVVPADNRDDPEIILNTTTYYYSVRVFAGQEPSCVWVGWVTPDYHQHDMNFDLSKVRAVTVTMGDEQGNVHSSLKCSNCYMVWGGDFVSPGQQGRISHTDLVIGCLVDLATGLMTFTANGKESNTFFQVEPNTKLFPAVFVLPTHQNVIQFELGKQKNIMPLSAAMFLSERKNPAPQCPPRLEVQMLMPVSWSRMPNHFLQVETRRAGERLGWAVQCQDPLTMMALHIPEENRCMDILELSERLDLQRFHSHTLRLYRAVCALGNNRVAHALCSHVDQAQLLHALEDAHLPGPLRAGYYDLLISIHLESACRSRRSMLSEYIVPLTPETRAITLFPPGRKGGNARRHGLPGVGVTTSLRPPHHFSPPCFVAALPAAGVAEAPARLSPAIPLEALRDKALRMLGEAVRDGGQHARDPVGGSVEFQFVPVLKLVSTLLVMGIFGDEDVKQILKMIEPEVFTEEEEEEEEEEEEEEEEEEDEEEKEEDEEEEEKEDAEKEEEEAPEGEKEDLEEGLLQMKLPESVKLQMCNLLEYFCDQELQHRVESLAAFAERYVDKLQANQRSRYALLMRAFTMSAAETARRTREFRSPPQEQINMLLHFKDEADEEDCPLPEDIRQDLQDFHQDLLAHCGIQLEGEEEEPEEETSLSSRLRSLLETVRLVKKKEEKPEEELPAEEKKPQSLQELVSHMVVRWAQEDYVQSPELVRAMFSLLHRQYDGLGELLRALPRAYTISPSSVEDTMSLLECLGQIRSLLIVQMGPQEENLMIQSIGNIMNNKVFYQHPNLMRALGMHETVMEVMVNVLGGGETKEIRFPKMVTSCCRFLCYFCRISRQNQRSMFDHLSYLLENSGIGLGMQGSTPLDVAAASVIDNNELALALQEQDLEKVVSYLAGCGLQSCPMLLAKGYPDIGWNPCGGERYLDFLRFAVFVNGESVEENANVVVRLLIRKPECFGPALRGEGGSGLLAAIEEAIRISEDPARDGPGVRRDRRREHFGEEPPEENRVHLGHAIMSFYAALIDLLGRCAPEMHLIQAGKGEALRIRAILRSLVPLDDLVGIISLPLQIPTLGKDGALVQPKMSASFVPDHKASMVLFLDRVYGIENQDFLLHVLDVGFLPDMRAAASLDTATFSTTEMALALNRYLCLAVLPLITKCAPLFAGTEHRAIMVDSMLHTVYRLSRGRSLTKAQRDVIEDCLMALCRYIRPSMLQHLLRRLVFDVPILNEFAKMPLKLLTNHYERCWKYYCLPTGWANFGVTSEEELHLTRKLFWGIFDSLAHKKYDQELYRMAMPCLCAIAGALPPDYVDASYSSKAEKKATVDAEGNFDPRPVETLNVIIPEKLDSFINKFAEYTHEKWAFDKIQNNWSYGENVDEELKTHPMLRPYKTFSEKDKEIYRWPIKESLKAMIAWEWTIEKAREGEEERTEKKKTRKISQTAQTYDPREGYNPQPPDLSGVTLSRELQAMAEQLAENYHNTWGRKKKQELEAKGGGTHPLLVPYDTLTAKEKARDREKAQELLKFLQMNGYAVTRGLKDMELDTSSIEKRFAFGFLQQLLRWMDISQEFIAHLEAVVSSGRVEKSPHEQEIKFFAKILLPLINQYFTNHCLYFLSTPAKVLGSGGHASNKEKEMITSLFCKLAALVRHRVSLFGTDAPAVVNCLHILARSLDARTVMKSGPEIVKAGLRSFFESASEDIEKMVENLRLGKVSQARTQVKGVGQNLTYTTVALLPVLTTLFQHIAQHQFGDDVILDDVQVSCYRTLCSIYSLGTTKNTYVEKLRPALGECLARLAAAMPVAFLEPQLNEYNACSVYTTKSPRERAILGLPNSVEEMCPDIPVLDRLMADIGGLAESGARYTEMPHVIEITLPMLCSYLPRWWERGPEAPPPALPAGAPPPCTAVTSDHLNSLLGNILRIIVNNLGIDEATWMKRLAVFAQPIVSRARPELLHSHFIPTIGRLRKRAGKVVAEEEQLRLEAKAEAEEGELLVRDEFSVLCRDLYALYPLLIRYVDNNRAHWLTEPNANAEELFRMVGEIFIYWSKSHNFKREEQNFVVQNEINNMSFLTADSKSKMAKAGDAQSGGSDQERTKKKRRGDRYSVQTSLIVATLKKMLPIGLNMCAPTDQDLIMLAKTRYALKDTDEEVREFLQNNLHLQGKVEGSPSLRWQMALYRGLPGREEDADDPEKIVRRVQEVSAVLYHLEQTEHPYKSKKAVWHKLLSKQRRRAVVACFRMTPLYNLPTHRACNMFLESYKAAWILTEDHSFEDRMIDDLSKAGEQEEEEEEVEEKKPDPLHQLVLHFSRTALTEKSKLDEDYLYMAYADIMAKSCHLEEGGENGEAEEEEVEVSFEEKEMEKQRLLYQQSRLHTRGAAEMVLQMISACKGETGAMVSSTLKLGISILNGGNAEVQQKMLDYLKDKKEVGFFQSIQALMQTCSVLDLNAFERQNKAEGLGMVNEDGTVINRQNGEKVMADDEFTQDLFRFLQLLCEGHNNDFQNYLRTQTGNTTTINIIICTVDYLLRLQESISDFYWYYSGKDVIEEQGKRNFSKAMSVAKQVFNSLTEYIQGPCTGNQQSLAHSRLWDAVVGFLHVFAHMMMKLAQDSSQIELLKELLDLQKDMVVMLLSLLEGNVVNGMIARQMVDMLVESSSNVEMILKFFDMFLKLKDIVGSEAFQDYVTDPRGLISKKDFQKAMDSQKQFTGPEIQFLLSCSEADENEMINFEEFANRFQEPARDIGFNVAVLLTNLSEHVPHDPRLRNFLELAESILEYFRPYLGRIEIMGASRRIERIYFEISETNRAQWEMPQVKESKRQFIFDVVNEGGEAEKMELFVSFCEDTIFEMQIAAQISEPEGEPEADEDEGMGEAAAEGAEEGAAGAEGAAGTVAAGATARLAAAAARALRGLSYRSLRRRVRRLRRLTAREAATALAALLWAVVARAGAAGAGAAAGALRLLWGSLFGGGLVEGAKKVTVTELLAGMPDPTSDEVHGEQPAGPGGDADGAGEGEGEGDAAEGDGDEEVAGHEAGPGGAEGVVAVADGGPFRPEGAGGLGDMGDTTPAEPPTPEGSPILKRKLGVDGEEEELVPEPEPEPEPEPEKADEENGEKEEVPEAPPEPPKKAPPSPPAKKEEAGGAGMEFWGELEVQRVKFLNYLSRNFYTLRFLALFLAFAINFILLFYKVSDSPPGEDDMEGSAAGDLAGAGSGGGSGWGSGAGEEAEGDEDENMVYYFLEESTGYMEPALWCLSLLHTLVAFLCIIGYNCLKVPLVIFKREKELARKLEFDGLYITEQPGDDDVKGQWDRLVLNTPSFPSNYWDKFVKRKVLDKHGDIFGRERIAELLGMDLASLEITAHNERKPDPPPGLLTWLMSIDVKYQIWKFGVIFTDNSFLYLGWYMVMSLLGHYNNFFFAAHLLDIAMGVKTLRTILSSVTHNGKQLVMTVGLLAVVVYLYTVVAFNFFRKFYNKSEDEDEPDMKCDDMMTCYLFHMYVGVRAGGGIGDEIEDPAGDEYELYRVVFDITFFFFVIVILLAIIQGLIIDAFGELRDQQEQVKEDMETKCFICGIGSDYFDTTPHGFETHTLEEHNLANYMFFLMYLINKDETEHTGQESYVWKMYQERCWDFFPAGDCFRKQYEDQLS
# T2 sequence (P11716 whole entry): as above
# Chain of SR Ca^2+ release channel (junctional SR vesicles from rabbit skeletal muscle) (P11716 whole entry): as above
smiles,measurement,setting,value
"C=C1CCC2(O)C3(C)CC4(O)OC2(C1O)C1(O)C3(O)C(OC(=O)c2ccc[nH]2)C(O)(C(C)C)C41C (stereo not drawn) [Dehydroryanodine, dehydroryanodine]",closing of the SR Ca^++ release channel (in words),"[1]; I, NMDS: concentrations as high as 300 μM, ryanodine, dehydroryanodine: >μM",the channel is closed
same,opening of the SR Ca^++ release channel (in words),"[1]; ryanodine, dehydroryanodine: low concentrations (<μM)",opens the SR Ca^++ release channel/ryanodine receptor; also recorded: the Ca^++ release channel is opened
same,IC50,[2],16.1 ± 4.1 nM
same,Kd,[2],5.4 ± 0.1 nM
"CC1CCC2(O)C3(C)CC4(O)OC2(C1OC(=O)CNC(=O)OCc1ccccc1)C1(O)C3(O)C(OC(=O)c2ccc[nH]2)C(O)(C(C)C)C41C (stereo not drawn) [I, O10eq-[(N'Carbobenzyloxy)-Glycyl]-Ryanodine]",relative binding affinity compared with ryanodine (in words),[3]; vs ryanodine,slightly enhanced affinity
same,closing of the SR Ca^++ release channel (in words),[1],neither XVII(NMDS) nor CBZ-glycyl-ryanodine (I) exhibits significant ability to close the channel
same,opening of the SR Ca^++ release channel (in words),[1],"only slightly less active than ryanodine for opening the channel; also recorded: same selective activity of only opening this channel, albeit at higher dose levels"
same,potency and selectivity comparison (in words),[1]; I vs XVIII (NMDS),more potent and more selective than XVIII(NMDS)
same,IC50,[2]; [5],22.3 ± 7.3 nM
same,Kd,[2]; [6],6.6 ± 2 nM
"C=C1CCC2(O)C3(C)CC4(O)OC2(C1OC(=O)CCNC(=O)c1ccccc1)C1(O)C3(O)C(OC(=O)c2ccc[nH]2)C(O)(C(C)C)C41C (stereo not drawn) [II, O10eg -(N-Benzoyl-β-alanyl)-Dehydroryanodine]",IC50,[2]; [5],25.1 ± 8.2 nM
same,Kd,[2]; [6],8.2 ± 3.2 nM
"C=C1CCC2(O)C3(C)CC4(O)OC2(C1OC(=O)CCNC(=O)C12CC5CC(CC(C5)C1)C2)C1(O)C3(O)C(OC(=O)c2ccc[nH]2)C(O)(C(C)C)C41C (stereo not drawn) [III, O10eq-[N-(1-Adamantanecarbonyl)-β-Alanyl]-Dehydroryanodine]",IC50,[2]; [5],72.8 ± 6.2 nM
same,Kd,[2]; [6],26.9 ± 3.6 nM
"CC1CCC2(O)C3(C)CC4(O)OC2(C1OC(=O)CCNC(=O)OCc1ccccc1)C1(O)C3(O)C(OC(=O)c2ccc[nH]2)C(O)(C(C)C)C41C (stereo not drawn) [IV, O10eq. -Carbobenzyloxy-β-alanyl-ryanodine]",IC50,"[3]; Table I value multiplied by 6.2/11.9=0.52, read-out: adjusted IC50 value",6.4 nM
same,IC50,[3]; [7],5.9 nM
same,relative binding affinity compared with ryanodine (in words),[3]; vs ryanodine,slightly enhanced affinity
same,opening of the SR Ca^++ release channel (in words),[1],"same selective activity of only opening this channel, albeit at higher dose levels"
same,IC50,[2]; [5],12.3 ± 1 nM
same,Kd,[2]; [6],4 ± 0.2 nM
same,IC50,"[2]; restated for adjustment, read-out: IC50 value (Table I value as restated in text)",12.3 nM
"CC1=C(C(C)C)C(OC(=O)c2ccc[nH]2)C2(O)C3(C)CC(=O)OC4(C(OC(=O)CCN)C(C)CCC34O)C12O (stereo not drawn) [V-I, O10eq -β-Alanyl-Anhydroryanodine]",IC50,[2]; [5],37 nM
same,IC50,[2]; [8],106 nM
same,Kd,"[2]; first embodiment, read-out: KD",37 nM
same,binding affinity as fraction of that of Ryanodine,[2]; vs ryanodine,1/10
"CC1CCC2(O)C3(C)CC4(O)OC2(C1OC(=O)CCNC(=O)c1cc(N=[N+]=[N-])ccc1[N+](=O)[O-])C1(O)C3(O)C(OC(=O)c2ccc[nH]2)C(O)(C(C)C)C41C (stereo not drawn) [VI, O10eq-[N-(5-Azido-2-nitrobenzoyl)-β-Alanyl] Ryanodine]",binding affinity for the ryanodine receptor (in words),[2],of a similar magnitude as that of ryanodine
same,IC50,[2]; [5],36.6 ± 2.8 nM
same,Kd,[2]; [6],12.5 ± 1 nM
same,Kd,"[2]; VI prepared from V-II, read-out: KD (50)",12.5 ± 1 nM
same,IC50,"[2]; VI prepared from V, read-out: IC50",37.2 ± 9.7 nM
same,Kd,"[2]; VI prepared from V, read-out: KD",14 ± 3.6 nM
same,IC50,[2]; [8],36.6 ± 2.8 nM
same,Kd,"[2]; first embodiment, read-out: KD",12.5 ± 1 nM
"C=C1CCC2(O)C3(C)CC4(O)OC2(C1OC(=O)CCNC(=O)c1ccc(I)cc1)C1(O)C3(O)C(OC(=O)c2ccc[nH]2)C(O)(C(C)C)C41C (stereo not drawn) [XII, p-Iodobenzoyl-β-alanyl-dehydroryanodine]",binding affinity for the ryanodine receptor (in words),[2],binds effectively to the ryanodine receptor
same,IC50,[2]; [5],16 nM
same,Kd,[2]; [6],5.2 nM
same,IC50,[2]; [8],16 nM
same,Kd,"[2]; first embodiment, read-out: KD",5.2 nM
"C=C1CCC2(O)C3(C)CC4(O)OC2(C1OC(=O)CCNC(=O)c1ccc(OCCCC)cc1)C1(O)C3(O)C(OC(=O)c2ccc[nH]2)C(O)(C(C)C)C41C (stereo not drawn) [XIII, O10eq-[N-(p-n-Butoxybenzoyl)-β-Alanyl]-Dehydroryanodine]",IC50,[2]; [5],28 ± 6.6 nM
same,Kd,[2]; [6],9.7 ± 2.5 nM
same,IC50,[2]; [8],20.2 nM
same,Kd,"[2]; first embodiment, read-out: KD",6 nM
"CC1CCC2(O)C3(C)CC4(O)OC2(C1OC(=O)CCNC(=O)CCCCC1SCC2NC(=O)NC21)C1(O)C3(O)C(OC(=O)c2ccc[nH]2)C(O)(C(C)C)C41C (stereo not drawn) [XIV, O10eq -N-Biotinlyl-β-Alanyl-Ryanodine]",IC50,[2]; [5],65.1 ± 5.5 nM
same,Kd,[2]; [6],24.9 ± 1.4 nM
same,IC50,[2]; [8],65.1 ± 3.5 nM
same,Kd,"[2]; first embodiment, read-out: KD",24.9 ± 1.4 nM
"CC1=CC(C)=[N+]2C1=Cc1ccc(CCC(=O)NCCC(=O)OC3C(C)CCC4(O)C5(C)CC6(O)OC34C3(O)C5(O)C(OC(=O)c4ccc[nH]4)C(O)(C(C)C)C63C)n1[B-]2(F)F (stereo not drawn) [XV, O10eq -N-BODIPY(FL C3)-β-Alanyl-Ryanodine]",IC50,[2]; [5],41.2 ± 2.7 nM
same,Kd,[2]; [6],15.8 ± 1 nM
same,IC50,[2]; [8],41.2 ± 2.7 nM
same,Kd,"[2]; first embodiment, read-out: KD",15.8 ± 1 nM
"C=C1CCC2(O)C3(C)CC4(O)OC2(C1OC(=O)CCC(=O)O)C1(O)C3(O)C(OC(=O)c2ccc[nH]2)C(O)(C(C)C)C41C (stereo not drawn) [XVII, Dehydroryanodine-O10eg -Hemi-Succinate]",IC50,[2]; IC50 (nM),> 1000 nM
"C=C1CCC2(O)C3(C)CC4(O)OC2(C1OC(=O)CCC(=O)NC)C1(O)C3(O)C(OC(=O)c2ccc[nH]2)C(O)(C(C)C)C41C (stereo not drawn) [XVIII, N-Methyl-Dehydroryanodine-Succinamidate]",closing of the SR Ca^++ release channel (in words),[1],neither XVII(NMDS) nor CBZ-glycyl-ryanodine (I) exhibits significant ability to close the channel
same,opening of the SR Ca^++ release channel (in words),[1],only slightly less active than ryanodine for opening the channel
same,IC50,[2]; IC50 (nM),49.4 ± 10.6 nM
same,Kd,[2]; [6],19.9 ± 5.8 nM
"CC1CCC2(O)C3(C)CC4(O)OC2(C1OC(=O)CCNC(=NC(=O)OCc1ccccc1)NC(=O)OCc1ccccc1)C1(O)C3(O)C(OC(=O)c2ccc[nH]2)C(O)(C(C)C)C41C (stereo not drawn) [XX, O10eq -β-N,N'-bis-Cbz-guanidino-propionyl-ryanodine]",IC50,[3]; [9],43.6 nM
same,lessened affinity compared with ryanodine,[3]; vs ryanodine,7-20 fold
"CC1CCC2(O)C3(C)CC4(O)OC2(C1OC(=O)CCNC(=N)N)C1(O)C3(O)C(OC(=O)c2ccc[nH]2)C(O)(C(C)C)C41C (stereo not drawn) [XXI, O10eq -β-Guanidinopropionyl-Ryanodine]",opening (activation) of the SR CRC (in words),[4],appears to be purely an activator of the SR CRC
same,closing (deactivation) of the SR CRC (in words),"[4]; higher concentrations, up to 1 mM for V-II, XXI preliminary",entirely lack the ability of ryanodine to close the SR CRC
same,pharmacological profile (in words),[4]; vs biphasic profile of ryanodine,"altered--unidirectional--pharmacological profile, differing from the biphasic profile of ryanodine"
same,IC50,[3]; [9],1.1 ± 0.1 nM
same,relative binding affinity compared with ryanodine (in words),[3]; vs ryanodine,about six times greater than that of ryanodine
same,relative binding affinity compared with ryanodine (in words),"[3]; vs ryanodine, listed as O10eq -β-guanidinopropyl-ryanodine",high binding affinity
"CC1CCC2(O)C3(C)CC4(O)OC2(C1OC(=O)CN)C1(O)C3(O)C(OC(=O)c2ccc[nH]2)C(O)(C(C)C)C41C (stereo not drawn) [XXII, O10eq -glycyl-ryanodine]",IC50,[3]; [9],1.8 ± 0.4 nM
"CC1CCC2(O)C3(C)CC4(O)OC2(C1OC(=O)CNC(=NC(=O)OCc1ccccc1)NC(=O)OCc1ccccc1)C1(O)C3(O)C(OC(=O)c2ccc[nH]2)C(O)(C(C)C)C41C (stereo not drawn) [XXIII, O10eq -N,N'-bis-(Cbz)-guanidinoacetyl-ryanodine]",lessened affinity compared with ryanodine,[3],7-20 fold
same,IC50,[3]; IC50 (nM) ± S.D.,136 nM
"CC1CCC2(O)C3(OC4(O)C[C@]2(C)C2(O)[C@H](OC(=O)c5ccc[nH]5)C(O)(C(C)C)C4(C)C32O)[C@@H]1OC(=O)CN=C(N)N (stereo partly drawn) [XXIV, O10eq -Guanidinoacetyl-Ryanodine]",IC50,[3]; [9],1.8 ± 0.2 nM
same,IC50,[3]; [7],1.8 nM
"C=C1CCC2(O)C3(C)CC4(O)OC2(C1OC(=O)CCNC(=O)OCc1ccccc1)C1(O)C3(O)C(OC(=O)c2ccc[nH]2)C(O)(C(C)C)C41C (stereo not drawn) [XXV, O10eq -CBZ-β-Alanyl-Dehydroryanodine]",IC50,[3]; [9],4.43 nM
"C=C1CCC2(O)C3(C)CC4(O)OC2(C1OC(=O)CCN)C1(O)C3(O)C(OC(=O)c2ccc[nH]2)C(O)(C(C)C)C41C (stereo not drawn) [XXVI, O10eq -β-Alanyl-Dehydroryanodine]",IC50,[3]; [9],3.36 nM
"CC1CCC2(O)C3(C)CC4(O)OC2(C1OC(=O)CCNC(=O)CCNC(=O)c1cc(I)c(N=[N+]=[N-])cc1O)C1(O)C3(O)C(OC(=O)c2ccc[nH]2)C(O)(C(C)C)C41C (stereo not drawn) [XXXI, O10eq N-(4-azido-5-^125 Iodosalicyloyl)-β-alanyl-β-alanyl ryanodine]",deactivation of the CRC in calcium flux experiments (in words),"[4]; concentrations greater than 1 mM, non-radioactive compound",does not deactivate the CRC
same,IC50,"[2]; non-radioactive compound, read-out: IC50",25.1 ± 2.5 nM
